Series [1] is described as follows: method code SF-HPLC, from DOI: 10.1002/jps.2600830309, PMID: 8207673. The following applies: pH 7.5.

Turning to `CCc1cc(Cl)c(O)c(C(=O)NC[C@@H]2CCCN2CCF)c1OC`, under “pH 7.5”, the logD (in general, lipophilicity at a set pH, counting ionised and neutral species) was 4.71.
Same read-out and setting: under `COc1cc(Br)cc(C(=O)NC[C@@H]2CCCN2CCF)c1OC` stands 3.22.
In turn, `CCOc1c(OC)cc(I)c(O)c1C(=O)NC[C@@H]1CCCN1CC` showed a pH-dependent lipophilicity (logD) (pH 7.4) of 2.52.
For `CCOc1ccc(I)c(O)c1C(=O)NC[C@@H]1CCCN1CC`, in series [1], the log distribution coefficient (logD) came out at 2.84.

The values above are taken from the SangsterLogP compilation.
